Test results taken from patent publication US20250270199A1, “THIAZOLE DERIVATIVES AND METHODS OF USING THE SAME” (Arkansas State University - Jonesboro, priority 2022, published 2025).
Like-named read-outs stand apart in the source and are kept apart here.

Columns and labels:
[1] = test system: S. aureus ATCC 700699 (Sa 99); assay: MIC, broth microdilution, Sa 99; type: cell-based; details: for MIC: Staphylococcus aureus, read-out: Minimum inhibitory concentration (MIC) Sa 99; for Minimum inhibitory concentration (MIC) Sa 99: Table 1, HT series
Method: (§1) The broth microdilution method was utilized to determine MIC values of novel thiazole derivatives against different clinically important Gram-positive bacteria according to the guidelines outlined by the Clinical and Laboratory Standards Institute (CLSI) as reported in our recent papers.^1-5 The starting concentration of compounds for MIC determination was 64 μg/mL serially diluted down the wells and the MIC values were recorded in duplicates in three independent experiments on different days.

[2] = test system: E. faecalis ATCC 29212 (Efs 12); assay: MIC, broth microdilution, Efs 12; type: cell-based; details: for MIC: Enterococcus faecalis, read-out: Minimum inhibitory concentration (MIC) Efs 12; for Minimum inhibitory concentration (MIC) Efs 12: Table 1, HT series
Method: as §1

[3] = test system: S. aureus ATCC 25923 (Sa 23); assay: MIC, broth microdilution, Sa 23; type: cell-based; details: for MIC: Staphylococcus aureus, read-out: Minimum inhibitory concentration (MIC) Sa 23; for Minimum inhibitory concentration (MIC) Sa 23: Table 1, HT series
Method: as §1

[4] = test system: S. aureus ATCC 33592 (Sa 92); assay: MIC, broth microdilution, Sa 92; type: cell-based; details: Staphylococcus aureus, ATCC33592; Table 2, HTM series; read-out: Minimum inhibitory concentration (MIC) Sa 92
Method: as §1

[5] = test system: S. aureus ATCC BAA-2312 (Sa 12); assay: MIC, broth microdilution, Sa 12; type: cell-based; details: Staphylococcus aureus, ATCCBAA2312; Table 2, HTM series; read-out: Minimum inhibitory concentration (MIC) Sa 12
Method: as §1

[6] = test system: E. faecalis ATCC 51299 (Efs 99); assay: MIC, broth microdilution, Efs 99; type: cell-based; details: for MIC: Enterococcus faecalis, ATCC51299, read-out: Minimum inhibitory concentration (MIC) Efs 99
Method: as §1

[7] = test system: S. aureus ATCC 33591 (Sa 91); assay: MIC, broth microdilution, Sa 91; type: cell-based; details: Staphylococcus aureus, ATCC33591; Table 2, HTM series; read-out: Minimum inhibitory concentration (MIC) Sa 91
Method: as §1

[8] = test system: E. faecium ATCC 700221 (Efm 21); assay: MIC, broth microdilution, Efm 21; type: cell-based; details: Enterococcus faecium, read-out: Minimum inhibitory concentration (MIC) Efm 21
Method: as §1

[9] = test system: S. aureus subsp. aureus Rosenbach BAA-1717 (Sa USA 300); assay: MIC, broth microdilution, Sa USA 300; type: cell-based; details: Staphylococcus aureus; Table 2, HTM series; read-out: Minimum inhibitory concentration (MIC) Sa USA 300
Method: as §1

[10] = test system: S. epidermidis ATCC 700296 (Se); assay: MIC, broth microdilution, Se; type: cell-based; details: Staphylococcus epidermidis, ATCC700296; Table 2, HTM series; read-out: Minimum inhibitory concentration (MIC) Se
Method: as §1

[11] = test system: Sa UAMS-1 MRSA ATCC 49230 (Sa UAMS); assay: MIC, broth microdilution, Sa UAMS; type: cell-based, S. aureus; details: Staphylococcus aureus; Table 2, HTM series; read-out: Minimum inhibitory concentration (MIC) Sa UAMS-1
Method: as §1

[12] = test system: S. aureus subsp. aureus Rosenbach ATCC 25904 (SA Newman); assay: MIC, broth microdilution, SA Newman; type: cell-based; details: Staphylococcus aureus; Table 2, HTM series; read-out: Minimum inhibitory concentration (MIC) Sa Newman
Method: as §1

[13] = ATCC700699, Table 1, HT series, replicates from different days separated by comma
[14] = replicates from different days separated by comma
[15] = ATCC29212, Table 1, HT series, replicates from different days separated by comma
[16] = ATCC25923, Table 1, HT series, replicates from different days separated by comma
[17] = ATCC700699, Table 2, HTM series
[18] = ATCC700221, Table 2, HTM series

Oc1ccc(-c2nc(C(F)(F)F)cs2)cc1O [Compound 1, 4-(4-(trifluoromethyl)thiazol-2-yl)benzene-1,2-diol]
>32, >32 μg/mL: Minimum inhibitory concentration (MIC) Sa 99 [1, 14] | Minimum inhibitory concentration (MIC) Efs 12 [2, 14] | Minimum inhibitory concentration (MIC) Sa 23 [3, 14]
> 32 µg/mL: MIC [1, 13] | MIC [2, 15] | MIC [3, 16]

COc1ccc(-c2csc(-c3ccc(O)c(O)c3)n2)cc1 [Compound 7, 4-(4-(4-methoxyphenyl)thiazol-2-yl)benzene-1,2-diol]
32, 32 μg/mL: Minimum inhibitory concentration (MIC) Sa 99 [1, 14]
16, 16 μg/mL: Minimum inhibitory concentration (MIC) Sa 23 [3, 14]
> 32 µg/mL: MIC [2, 15]
>32, >32 μg/mL: Minimum inhibitory concentration (MIC) Efs 12 [2, 14]
32 µg/mL: MIC [1, 13]
16 µg/mL: MIC [3, 16]

Oc1ccc(-c2nc(-c3ccncc3)cs2)cc1O [Compound 11, 4-(4-(pyridin-4-yl)thiazol-2-yl)benzene-1,2-diol]
> 32 µg/mL: MIC [1, 13] | MIC [2, 15] | MIC [3, 16]
>32, >32 μg/mL: Minimum inhibitory concentration (MIC) Sa 99 [1, 14] | Minimum inhibitory concentration (MIC) Efs 12 [2, 14] | Minimum inhibitory concentration (MIC) Sa 23 [3, 14]

N#Cc1ccc(-c2csc(-c3ccc(O)c(O)c3)n2)cc1 [Compound 12, 4-(2-(3,4-dihydroxyphenyl)thiazol-4-yl)benzonitrile]
>32, >32 μg/mL: Minimum inhibitory concentration (MIC) Sa 99 [1, 14] | Minimum inhibitory concentration (MIC) Efs 12 [2, 14] | Minimum inhibitory concentration (MIC) Sa 23 [3, 14]
> 32 µg/mL: MIC [1, 13] | MIC [2, 15] | MIC [3, 16]

O=C(O)c1ccc(-c2csc(-c3ccc(O)c(O)c3)n2)cc1 [Compound 13, 4-(2-(3,4-dihydroxyphenyl)thiazol-4-yl)benzoic acid]
> 32 µg/mL: MIC [1, 13] | MIC [2, 15] | MIC [3, 16]
>32, >32 μg/mL: Minimum inhibitory concentration (MIC) Sa 99 [1, 14] | Minimum inhibitory concentration (MIC) Efs 12 [2, 14] | Minimum inhibitory concentration (MIC) Sa 23 [3, 14]

Oc1ccc(-c2nc(-c3ccc(-c4ccccc4)cc3)cs2)cc1O [Compound 15, 4-(4-([1,1′-biphenyl]-4-yl)thiazol-2-yl)benzene-1,2-diol]
> 32 µg/mL: MIC [1, 13] | MIC [2, 15] | MIC [3, 16]
>32, >32 μg/mL: Minimum inhibitory concentration (MIC) Sa 99 [1, 14] | Minimum inhibitory concentration (MIC) Efs 12 [2, 14] | Minimum inhibitory concentration (MIC) Sa 23 [3, 14]

NC(=O)c1cc(-c2csc(-c3ccc(O)c(O)c3)n2)ccc1O [Compound 16, 5-(2-(3,4-dihydroxyphenyl)thiazol-4-yl)-2-hydroxybenzamide]
>32, >32 μg/mL: Minimum inhibitory concentration (MIC) Sa 99 [1, 14] | Minimum inhibitory concentration (MIC) Efs 12 [2, 14] | Minimum inhibitory concentration (MIC) Sa 23 [3, 14]
> 32 µg/mL: MIC [1, 13] | MIC [2, 15] | MIC [3, 16]

O=c1oc2ccccc2cc1-c1csc(-c2ccc(O)c(O)c2)n1 [Compound 17, 3-(2-(3,4-dihydroxyphenyl)thiazol-4-yl)-2H-chromen-2-one]
>32, >32 μg/mL: Minimum inhibitory concentration (MIC) Efs 12 [2, 14] | Minimum inhibitory concentration (MIC) Sa 23 [3, 14]
32 µg/mL: Minimum inhibitory concentration (MIC) Sa 99 [1, 14]
> 32 µg/mL: MIC [2, 15] | MIC [3, 16]
16 µg/mL: MIC [1, 13]

Oc1ccc(-c2csc(-c3cc(Cl)cc(Cl)c3)n2)cc1 [Compound 43, 4-(2-(3,5-dichlorophenyl)thiazol-4-yl)phenol]
2 µg/mL: MIC ([2]; ATCC29212, Table 2, HTM series) | MIC ([6]; Table 2, HTM series) | MIC [8, 18]
1 µg/mL: MIC [4] | MIC [1, 17] | MIC [5] | MIC [7] | MIC ([3]; ATCC25923, Table 2, HTM series) | MIC [9] | MIC [10] | MIC [11] | MIC [12]

Oc1ccc(-c2csc(-c3ccc(C(F)(F)F)cc3)n2)cc1O [Compound 47, 4-{2-[4-(trifluoromethyl)phenyl]-1,3-thiazol-4-yl}benzene-1,2-diol]
8 µg/mL: MIC [4] | MIC [1, 17] | MIC ([6]; Table 2, HTM series) | MIC [7] | MIC [8, 18] | MIC [9] | MIC [10] | MIC [11] | MIC [12]
4 µg/mL: MIC [5] | MIC ([3]; ATCC25923, Table 2, HTM series)
16 µg/mL: MIC ([2]; ATCC29212, Table 2, HTM series)

Oc1ccc(-c2csc(Nc3cc(C(F)(F)F)cc(C(F)(F)F)c3)n2)cc1O [Compound 58, 4-(2-((3,5-bis(trifluoromethyl)phenyl)amino)thiazol-4-yl)benzene-1,2-diol]
4 µg/mL: MIC [4] | MIC [1, 17] | MIC ([2]; ATCC29212, Table 2, HTM series) | MIC [5] | MIC ([6]; Table 2, HTM series) | MIC [7] | MIC ([3]; ATCC25923, Table 2, HTM series) | MIC [8, 18] | MIC [9] | MIC [10] | MIC [11] | MIC [12]

Oc1ccc(-c2csc(Nc3cc(C(F)(F)F)cc(C(F)(F)F)c3)n2)cc1 [Compound 59, 4-(2-((3,5-bis(trifluoromethyl)phenyl)amino)thiazol-4-yl)phenol]
1 µg/mL: MIC [4] | MIC [1, 17] | MIC ([2]; ATCC29212, Table 2, HTM series) | MIC [5] | MIC ([6]; Table 2, HTM series) | MIC [7] | MIC ([3]; ATCC25923, Table 2, HTM series) | MIC [8, 18] | MIC [9] | MIC [10] | MIC [12]
2 µg/mL: MIC [11]

Oc1ccc(-c2csc(-c3ccc(Cl)c(Cl)c3)n2)cc1 [Compound 65, 4-(2-(3,4-dichlorophenyl)thiazol-4-yl)phenol]
2 µg/mL: MIC ([2]; ATCC29212, Table 2, HTM series) | MIC ([6]; Table 2, HTM series) | MIC [8, 18] | MIC [11] | MIC [12]
1 µg/mL: MIC [4] | MIC [1, 17] | MIC [5] | MIC [7] | MIC ([3]; ATCC25923, Table 2, HTM series) | MIC [9] | MIC [10]

Cc1ccc(Nc2nc(-c3ccc(O)cc3)cs2)cc1Cl [Compound 67, 4-(2-((3-chloro-4-methylphenyl)amino)thiazol-4-yl)phenol]
4 µg/mL: MIC [4] | MIC [1, 17] | MIC [5] | MIC ([3]; ATCC25923, Table 2, HTM series) | MIC [8, 18] | MIC [9] | MIC [10] | MIC [11] | MIC [12]
8 µg/mL: MIC ([2]; ATCC29212, Table 2, HTM series) | MIC ([6]; Table 2, HTM series) | MIC [7]

Oc1ccc(-c2csc(Nc3cc(Cl)c(Cl)cc3Cl)n2)cc1 [Compound 69, 4-(2-((2,4,5-trichlorophenyl)amino)thiazol-4-yl)phenol]
4 µg/mL: MIC ([2]; ATCC29212, Table 2, HTM series) | MIC ([6]; Table 2, HTM series) | MIC [8, 18] | MIC [9] | MIC [11] | MIC [12]
1 µg/mL: MIC [4] | MIC [1, 17] | MIC [5] | MIC [7] | MIC ([3]; ATCC25923, Table 2, HTM series)
8 µg/mL: MIC [10]

Oc1ccc(-c2csc(Nc3cc(Cl)ccc3Cl)n2)cc1 [Compound 73, 4-(2-((2,5-dichlorophenyl)amino)thiazol-4-yl)phenol]
4 µg/mL: MIC [4] | MIC [1, 17] | MIC ([2]; ATCC29212, Table 2, HTM series) | MIC [5] | MIC [7] | MIC ([3]; ATCC25923, Table 2, HTM series) | MIC [9] | MIC [10] | MIC [11] | MIC [12]
8 µg/mL: MIC ([6]; Table 2, HTM series) | MIC [8, 18]

CCCCCCCCCC(=O)N[C@@H](Cc1c[nH]c2ccccc12)C(=O)N[C@H](CC(N)=O)C(=O)N[C@@H](CC(=O)O)C(=O)N[C@@H]1C(=O)NCC(=O)N[C@@H](CCCN)C(=O)N[C@@H](CC(=O)O)C(=O)N[C@H](C)C(=O)N[C@@H](CC(=O)O)C(=O)NCC(=O)N[C@H](CO)C(=O)N[C@@H]([C@H](C)CC(=O)O)C(=O)N[C@@H](CC(=O)c2ccccc2N)C(=O)O[C@@H]1C [Dapt., Daptomycin, reference compound]
1 µg/mL: MIC ([6]; Table 1, HT series) | Minimum inhibitory concentration (MIC) Efs 99 ([6]; Table 2, HTM series) | MIC [8, 18]
4 µg/mL: MIC ([8]; ATCC700221, Table 1, HT series)
